The values below are quoted from earlier work in US20170143622A1, “STABLE LIQUID READY-TO-USE INJECTABLE FORMULATION OF BORTEZOMIB” (DR. REDDY'S LABORATORIES LIMITED, priority 2014, published 2017).

The conditions of data set [1]: 25° C.
For data set [2] the following is noted: ethanol composition, 40° C. and 75% relative humidity, 1 month.
The conditions of data set [3]: polyethylene glycol (PEG).

Structures are written as SMILES. Where two headings read alike, the source gives them in different places.

For `CC(C)C[C@H](NC(=O)[C@H](Cc1ccccc1)NC(=O)c1cnccn1)B(O)O` [bortezomib, [(1R)-3-methyl-1-[[(2S)-1-oxo-3-phenyl-2[(pyrazinylcarbonyl)amino]propyl]amino]butyl]boronic acid], the Degradation was 20% in data set [1] (ethanol: normal saline solution (2:98, pH 2.8), bortezomib 0.5 mg/ml, 1 month); at most 20% in data set [1] (polyethylene glycol (PEG) 300: Ethanol:Water (40:10:50), 24 hours); 20% in data set [1] (propylene glycol (PG): Ethanol:Water (50:10:40), 8 months). Moreover, the “Bortezomib degraded to” value in data set [2] is listed as 76%. For the same molecule, in data set [3], the “Solubility in PEG” value is “insolubility”.
